Results taken from article PMC2836812 (Chemical biology & drug design, 2010).
Read-outs that look alike come from different tables or passages of the source.

Legend:
[1] = biological target: T1, ScPFTase (protein farnesyltransferase), β-subunit (Saccharomyces cerevisiae, UniProt P22007); assay: continuous fluorescence assay with N-dansyl-GCVIA; format: biochemical
T1 sequence (P22007 1-431): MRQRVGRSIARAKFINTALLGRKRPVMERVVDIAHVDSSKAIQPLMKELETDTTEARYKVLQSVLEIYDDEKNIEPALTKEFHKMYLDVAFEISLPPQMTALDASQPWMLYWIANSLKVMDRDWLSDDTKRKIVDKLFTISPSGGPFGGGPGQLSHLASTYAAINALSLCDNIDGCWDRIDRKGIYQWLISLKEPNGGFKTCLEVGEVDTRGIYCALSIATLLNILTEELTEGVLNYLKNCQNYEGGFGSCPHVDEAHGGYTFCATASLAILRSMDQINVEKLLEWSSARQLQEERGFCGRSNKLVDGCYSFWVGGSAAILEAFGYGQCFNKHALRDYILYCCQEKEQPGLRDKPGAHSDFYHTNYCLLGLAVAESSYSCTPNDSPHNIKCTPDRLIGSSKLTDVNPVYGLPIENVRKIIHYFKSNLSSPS
T1 sequence (P29703 1-316 partner): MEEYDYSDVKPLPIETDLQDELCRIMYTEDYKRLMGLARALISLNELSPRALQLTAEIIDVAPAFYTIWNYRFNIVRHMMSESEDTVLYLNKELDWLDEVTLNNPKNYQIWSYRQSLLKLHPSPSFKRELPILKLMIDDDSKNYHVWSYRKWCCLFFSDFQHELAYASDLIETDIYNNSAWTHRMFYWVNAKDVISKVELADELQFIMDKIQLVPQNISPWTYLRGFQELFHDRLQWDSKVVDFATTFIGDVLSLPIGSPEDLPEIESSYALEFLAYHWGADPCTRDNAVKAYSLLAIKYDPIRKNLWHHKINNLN

[2] = biological target: T1, ScPFTase (protein farnesyltransferase), β-subunit; assay: continuous fluorescence assay with N-dansyl-GCVIA; format: biochemical; remark: listed apart in the source

Row | IC50 [1] [µM] | IC50 [2] [µM] | Structure (SMILES)
1 | 30 |  | C/C(=C\COP(=O)(O)OP(=O)(O)O)CCCC(C)COC(=O)C(=[N+]=[N-])C(F)(F)F (racemic) [compound 4, (E)-8-O-(2-Diazo-3,3,3-trifluoropropanoyloxy)-3,7-dimethyl-2-octenyl-1-diphosphate]
2 |  | 50 | C/C(=C\COP(=O)(O)OP(=O)(O)O)CC/C=C(\C)CNC(=O)C(=[N+]=[N-])C(F)(F)F [compound 3, (E,E)-8-N-(2-Diazo-3,3,3-trifluoropropionamido)-3,7-dimethyl-2,6-octadienyl-1-diphosphate]
